From US20110195997A1, “Dicarboxamide Derivatives” (priority 2006, published 2011)

Target: T1, human factor Xa (Homo sapiens, UniProt P00742)
T1 construct: Factor Xa is a serine endopeptidase composed of two disulfide-linked subunits; purchased Enzyme Research Laboratories
Test: chromogenic peptide substrate assay, inhibition of factor Xa
Format: biochemical
Conditions: human factor Xa 3 nM, chromogenic substrate S-2222, pH 7.8, room temperature; apparent Ki from IC50 by Cheng-Prusoff
Protocol: Factor Xa activity was measured spectrophotometrically in microtiter plates in a final volume of 150 μl using the following conditions: Inhibition of human factor Xa (Enzyme Research Laboratories) was tested at an enzyme concentration of 3 nM using the chromogenic substrate S-2222 (Chromogenix AB, Mölndal, Sweden) at […]. The reaction kinetics of the enzyme and the substrate were linear with both time and the enzyme concentration. The inhibitors were dissolved in DMSO and tested at various concentrations up to 100 μM. The inhibitors were diluted using HNPT buffer consisting of HEPES 100 mM, NaCl 140 mM, PEG 6000 0.1% and Tween 80 0.02%, pH 7.8. […] The velocity of the reaction was determined by the autoreader from the slope of the linear regression fit to 7 time points (1 minute). The initial velocity for each inhibitor concentration was determined by the slope of at least 4 time points in the linear phase by a linear regression fit […]. Apparent dissociation constants Ki were calculated according to Cheng and Prusoff [Cheng, Y. C.; Prusoff, W. H. Relationship between the inhibition constant (Ki) and the concentration of the inhibitor that causes 50 percent inhibition (IC50) of an enzyme reaction. Biochem. Pharmacol. 1973, 22, 3099-3108.] based on the IC50 and the respective Km, determined previously (Ki=IC50/(1+S/Km)). […]

T1 sequence (P00742 235-488 limits assumed): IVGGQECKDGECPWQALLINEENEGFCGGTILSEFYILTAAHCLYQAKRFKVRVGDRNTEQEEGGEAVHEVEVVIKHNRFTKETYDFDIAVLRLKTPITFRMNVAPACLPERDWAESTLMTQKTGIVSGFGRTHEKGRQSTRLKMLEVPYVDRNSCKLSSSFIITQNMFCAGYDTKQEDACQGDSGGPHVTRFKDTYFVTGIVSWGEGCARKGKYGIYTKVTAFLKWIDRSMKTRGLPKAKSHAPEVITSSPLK
T1 sequence (P00742 41-179 partner limits assumed): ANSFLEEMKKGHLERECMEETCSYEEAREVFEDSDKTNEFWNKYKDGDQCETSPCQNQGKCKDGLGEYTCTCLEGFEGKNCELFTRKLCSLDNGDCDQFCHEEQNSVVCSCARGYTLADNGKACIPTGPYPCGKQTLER

## O=C(Nc1ccc(-n2ccccc2=O)cc1F)[C@H]1C[C@H]1C(=O)Nc1ccc(Cl)cn1 (single isomer, unassigned) [Example 1.4 (1S,2R) enantiomer]
  Ki: 0.003 µM
